Consider 10 molecules from patent US9096601B2 (CSPC Zhongqi Pharmaceutical Technology (Shijiazhuang) Co., …, priority 2010, dated 2015).

By IC50 is commonly meant the point on the concentration scale where inhibition reaches its midpoint.

Bounds are passed on as bounds.

What all share (assay): In-vitro tumor cell proliferation inhibition, MTT
Common to all, as to assay type: cell-based, human

Assay [1] concerns non-small cell lung carcinoma cell strain H1975 (EGFR L858R/T790M mutation). The settings on record: 72 hours. The procedure:
(§1) The object of this assay was to test the inventive compounds for the inhibitory activity of in-vitro tumor cell proliferation. The MTT (tetreamethyl-azo-zole-salt) colorimetric method was used in this assay.
(§2) All of the above-mentioned non-small cell lung carcinoma cell strains and the breast carcinoma cell strain BT 474 were cultured with a RPMI-1640 complete culture medium containing 10% fetal bovine serum, 100 U/ml penicillin and 100 μg/ml streptomycin under 5% CO2 and at 37° C. The other cell strains were cultured with a DMEM complete culture medium containing 10% fetal bovine serum (having a MV4-11 cell content of 20%), 100 U/ml penicillin and 100 μg/ml streptomycin under 5% CO2 and 37° C.
(§3) A cell suspension having a cell concentration of 1-2×10^4 cells/ml was treated with a complete cell culture solution to adjust the cell concentration, wherein the cell concentrations for HCC827 and MV4-11 were adjusted to 6×10^4 cells/ml and 1×10^5 cells/ml respectively. The cell suspension was inoculated in a 96-well plate with 200 μl cell suspension/well and cultured overnight. Next day, the supernatant was drawn off and discarded. Then, the cells were treated with the tested compounds in a gradient concentration respectively. In the meanwhile, a negative control group free of the drug substance and an isovolumetric solvent control group (having a DMSO concentration of 1%) were used. The triplicate wells were used for each of dose groups. The culturing was conducted at 37° C. under 5% CO2. After 72 hours, […] having a concentration of 5 mg/ml was added to each of wells. The culturing was further conducted for 2-4 hours. The supernatant was discarded. Then […] was added to each of wells. The contents in the well were mixed homogenously by oscillation for 15 minutes. The absorbance (A) value was measured with a microplate reader at λ=570 nm (the A value is in the direct proportion to the number of living cells) and averaged. The relative cell proliferation inhibitory rate is (A570 control-group−A570 dose-group)/A570 control-group×100%. The assay was repeated for at least three times. The data was expressed as number average. The statistical data were analyzed using t-test. P<0.05 was considered significant. The cell proliferation inhibition of the following compounds was expressed as IC50 or inhibitory rate.

The test system of assay [2] is non-small cell lung carcinoma cell strain H292 (EGFR WT). The settings on record: 72 hours. The procedure:
as §1, §2, §3

The test system of assay [3] is non-small cell lung carcinoma cell strain PC-9 (EGFR delE746-A750 deletion mutation). Particulars: 72 hours. The procedure:
as §1, §2, §3

The subject of assay [4] is non-small cell lung carcinoma cell strain HCC827. The settings on record: 72 hours. As for the experimental part:
as §1, §2, §3

Assay [5] deals with breast carcinoma cell strain MDA-MB-468. Particulars: 72 hours.
Description: as §1
(§4) Human non-small cell lung carcinoma cell strains HCC827, PC-9, H1975 (EGFR L858R/T790M mutation) and H292 (EGFR WT), and other tumor type cell strains, including human acute myelogenous leukemia cell strain MV4-11, human chronic granulocytic leukemia cell strain K562, human squamous cell carcinoma cell strain A431, human breast carcinoma cell strains MDA-MB-468 and BT 474, human colon cancer cell strains SW480, HCT116 and SW620, human liver cancer cell strain Hep G2, human gastric cancer cell strain MK-45, and human malignant melanoma cell strain A375 used in this assay were all purchased from ATCC company, USA and kept in the laboratory. All of the above-mentioned non-small cell lung carcinoma cell strains and the breast carcinoma cell strain BT 474 were cultured with a RPMI-1640 complete culture medium containing 10% fetal bovine serum, 100 U/ml penicillin and 100 μg/ml streptomycin under 5% CO2 and at 37° C. The other cell strains were cultured with a DMEM complete culture medium containing 10% fetal bovine serum (having a MV4-11 cell content of 20%), 100 U/ml penicillin and 100 μg/ml streptomycin under 5% CO2 and 37° C.
as §3

Assay [6] deals with colon cancer cell strain SW480. Particulars: 72 hours.
Description: as §1, §4, §3

The subject of assay [7] is colon cancer cell strain SW620. The settings on record: 72 hours.
Description: as §1, §4, §3

Assay [8] has as its system colon cancer cell strain HCT116. Particulars: 72 hours.
Description: as §1, §4, §3

In assay [9] the test system is acute myelogenous leukemia cell strain MV4-11. The settings on record: 72 hours.
Description: as §1, §4, §3

Assay [10] concerns breast carcinoma cell strain BT474. The settings on record: 72 hours.
Description: as §1, §4, §3

Assay [11] relates to liver cancer cell strain Hep G2. Particulars: 72 hours, read-out: HEPG2 (IC50).
Description: as §1, §4, §3

For assay [12], the system named is chronic granulocytic leukemia cell strain K562. The settings on record: 72 hours.
Description: as §1, §4, §3

Assay [13] relates to gastric cancer cell strain MK-45. The settings on record: 72 hours, read-out: MK45 (IC50).
Description: as §1, §4, §3

In assay [14] the test system is squamous cell carcinoma cell strain A431. Particulars: 72 hours.
Description: as §1, §4, §3

Assay [15] concerns malignant melanoma cell strain A375. The settings on record: 72 hours.
Description: as §1, §4, §3

On to `CN1CCN(c2ccc(Nc3ncc4nc(Nc5cc(F)ccc5F)n(C5CCCC5)c4n3)cc2)CC1` [Compounds 8-55], for which the IC50 in assay [1] was 323 nM; in assay [2], over 10000 nM; in assay [3], 1 nM; in assay [4], 0.2 nM; in [5] it was 2180 nM; in assay [6], 5320 nM. Further, the IC50 in assay [7] worked out at 2970 nM; in [8], 6550 nM; in assay [9], 682 nM; in assay [10], 456 nM; in [11], 4680 nM; in assay [12], 88 nM. The IC50 in assay [13] was 1720 nM; in assay [14] it was 198 nM; in assay [15] it was 2770 nM.
With `CN1CCN(c2ccc(Nc3ncc4nc(Nc5cc(Cl)c(Cl)cc5Cl)n(C5CCCC5)c4n3)cc2)CC1` [Compounds 8-57], the IC50 in assay [1] was over 10000 nM; in [2] it was 752 nM; in assay [3], 177 nM; in assay [4] it was 28 nM; in [5], over 10000 nM; in assay [6], 9760 nM. Besides, the IC50 in [7] was 8370 nM; in [8], 7860 nM; in [9], 6160 nM; in assay [10], over 10000 nM; in assay [11], over 10000 nM; in assay [12], 352 nM. Moreover, the IC50 was 4590 nM in [13], 5770 nM in assay [14] and over 10000 nM in assay [15].
For the molecule `CN1CCN(NC(=O)c2ccc(Nc3ncc4nc(Nc5cccnc5)n(C5CCCC5)c4n3)cc2)CC1` [Compounds 8-37], the IC50 was over 10000 nM in [1]; 5850 nM in assay [2]; 348 nM in assay [3]; 130 nM in [4]; over 10000 nM in [5]; over 10000 nM in [6]. For the same molecule, the IC50 was over 10000 nM in assay [7]; over 10000 nM in assay [8]; 102 nM in assay [9]; 4520 nM in assay [10]; over 10000 nM in assay [11]; 888 nM in assay [12]. Besides, the IC50 in assay [13], in assay [14] and in assay [15] was over 10000 nM throughout.
As to `CN1CCN(c2ccc(Nc3ncc4nc(Nc5ccc(Br)cc5F)n(C5CCCC5)c4n3)cc2)CC1` [Compounds 8-47], the IC50 amounted to 884 nM in [1]; 44.2 nM in [2]; 16.3 nM in assay [3]; 0.3 nM in assay [4]; 3190 nM in [5]; 5530 nM in assay [6]. For the same molecule, the 50% inhibitory concentration (IC50) was found to be 4950 nM in assay [7]; 6090 nM in [8]; 224 nM in assay [9]; 554 nM in assay [10]; 8460 nM in assay [11]; 97.2 nM in [12]. Besides, the IC50 in assay [13] came to 1180 nM; in [14] it was 299 nM; in [15], 1570 nM.
On to `CN1CCN(c2ccc(Nc3ncc4nc(Nc5cccc(O)c5)n(C5CCCC5)c4n3)cc2)CC1` [Compounds 8-51], for which the IC50 in assay [1] stood at 630 nM; in [2] it was 22.3 nM; in [3], 9.5 nM; in assay [4], 0.2 nM; in [5] it was 351 nM; in assay [6], 6720 nM. In addition, the IC50 worked out at 733 nM in assay [7]; 4140 nM in assay [8]; 3.6 nM in [9]; 764 nM in [10]; 8220 nM in assay [11]; 11.3 nM in assay [12]. Further, the IC50 in assay [13] was 248 nM; in assay [14], 248 nM; in assay [15], 539 nM.
Consider `CCN1CCN(Cc2ccc(Nc3ncc4nc(Nc5ccccc5)n(C5CCCC5)c4n3)cc2)CC1` [Compounds 8-59], for which the IC50 turned out to be 248 nM in assay [1]; 3.3 nM in assay [2]; 2.1 nM in assay [3]; 0.2 nM in [4]; 6840 nM in [5]; 4750 nM in [6]. Besides, the IC50 was 1330 nM in assay [7]; 5720 nM in assay [8]; 99.8 nM in assay [9]; 1100 nM in assay [10]; over 10000 nM in [11]; 111 nM in [12]. Also, the IC50 in assay [13] worked out at 808 nM; in [14], 497 nM; in assay [15], 1200 nM.
Consider `Cc1nc(Nc2ccc(N3CCN(C)CC3)cc2)nc2c1nc(Nc1ccccc1)n2C(C)C` [Compounds 8-34], for which the IC50 was 6310 nM in assay [1]; 1230 nM in [2]; 420 nM in assay [3]; 63.1 nM in [4]; 3260 nM in [5]; 9950 nM in assay [6]. Also, the 50% inhibitory concentration (IC50) was over 10000 nM in [7]; 10500 nM in assay [8]; 125 nM in assay [9]; 2630 nM in [10]; 8460 nM in assay [11]; 1600 nM in assay [12]. For the same molecule, the IC50 in [13] is 1660 nM; in assay [14] it was 2570 nM; in assay [15], 6570 nM.
Consider `CC(C)n1c(Nc2ccc(OCc3cccc(F)c3)c(Cl)c2)nc2cnc(Nc3ccc(N4CCOCC4)cc3)nc21` [Compounds 8-42], for which the IC50 was over 10000 nM in assay [1]; 673 nM in assay [2]; 3320 nM in [3]; 4260 nM in [4]; 1700 nM in [5]; over 10000 nM in assay [6]. Besides, the 50% inhibitory concentration (IC50) was over 10000 nM in assay [7]; over 10000 nM in assay [8]; 6640 nM in assay [9]; 5100 nM in assay [10]; over 10000 nM in assay [11]; 922 nM in assay [12]. In addition, the IC50 in [13] came out at 5100 nM; in assay [14], 2240 nM; in assay [15] it was 498 nM.
Consider `CN1CCN(c2ccc(Nc3ncc4nc(Nc5cc(Cl)cc(Cl)c5)n(C5CCCC5)c4n3)cc2)CC1` [Compounds 8-54], for which the IC50 in [1] is 1700 nM; in assay [2] it was 279 nM; in [3], 204 nM; in assay [4] it was 6.3 nM; in assay [5] it was 3350 nM; in assay [6] it was 6730 nM. For the same molecule, the 50% inhibitory concentration (IC50) in [7] is 6640 nM; in assay [8] it was 6960 nM; in [9], 1070 nM; in [10], 3960 nM; in [11], 5980 nM; in [12], 863 nM. For the same molecule, the IC50 was 688 nM in assay [13], 2060 nM in assay [14] and 5580 nM in assay [15].
For `CN1CCN(c2ccc(Nc3ncc4nc(Nc5ccccc5)n(C5CCCCC5)c4n3)cc2)CC1` [Compounds 8-50], the IC50 in [1] was 182 nM; in assay [2] it was over 10000 nM; in assay [3], 3.5 nM; in assay [4] it was 0.3 nM; in [5] it was 207 nM; in [6], 2720 nM. Besides, the IC50 was determined as 964 nM in assay [7]; 2470 nM in assay [8]; 64.4 nM in assay [9]; 2160 nM in assay [10]; 8250 nM in [11]; 30.5 nM in assay [12]. Moreover, the IC50 was determined as 218 nM in [13], 82.9 nM in assay [14] and 1560 nM in [15].
